≈ marks a conversion by molar mass, not a printed value.
B1: ε-poly-L-lysine biosynthetic enzyme: membrane-bound ε-poly-L-lysine biosynthetic enzyme (NRPS) from Streptomyces albulus strain IFO14147, amino acid sequence SEQ ID NO: 2 (protein, listed as Streptomyces albulus)
chain: MSSPLLESSFEPSEPAPQQALYRTAGNPAPRTLLDVLDATAAAHPQAIALDTGSEALTYRDLCIEIERRARQLRDRGIGPGDRVGVRVPSGTAELYLSILAVLRSGAAYVPVDADDPDERAATVFREAAVCAVLGPDGPLPGPARPLGDPRSAGPQDDAWIIFTSGSTGAPKGVAVSHRSAAAFVDAEADLFCQDQPLGPGDRVLAGLSVAFDASCEEMWLAWRYGACLVPAPRALVRAGHELGPWLVERGITVVSTVPTLAALWPDEAMRRVRLLIVGGESCPAGLVDRFAGPGREMWNTYGPTETTVVACAARLLPGEPVRIGLPLKGWQLAVVDRTGQPVPFGAEGELLISGVGTARYLDPAKDAERFRPDDALGAARVYRTGDLVRAEPEGLLFVGRADDQIKLGGRRIELGEIDAALAALPGVRGAAAAVQTTPAGTQVLVGYVVPEQRTADGSSFQQDKARALLQERLPAQLVPVLAEVESLPTRTSGKVDRKALPWPLPSAPVDSATGDPATALDGTAARLAGIWEELLGVRPGPDSDFVSLGGTSLVAARMASQLRIHHPGVSVADLYRHPVLRDMAEHLDSLGGPVDEVRPVRPVPRRTGFVQLLVQTGLYGIAGLRGLVGLALADNVLGLLAPQVWAPHTAWWLIIVGWVVLYSAPMRCALGALAARALAGTIKPGAYPRGGATHLRLWTAERVVAAFGVPSLLGTPWTRLYARSLGCATGRNVALHTMPPVTGLAELGDGCSVEPEADISGWWLDGDTLHIGAVRIGAGARVAHRSMLMPGAVVGQGAELASGACLDGEIPDGASWSGSPARPAGAAERMAGAAWPAPAWQRSRRWSAAYGLTLLGLSLLALLSTAPALVGAYFLLRDSGTLATAGLRLLLAVPVFTLLTTGCSLLVTAAVVRLLGRGITPGLHPASGGVAWRAWLVTRLLDGARGSLFPLYASLGTPHWLRLLGAKVGRHAEISTVLPLPSLLHVEDGAFLADDTLVAPFELRGGWLRLGTVRIGRRAFVGNSGIVDPGHDVPDHSLVGVLSNAPADGEPGSSWLGRPAMPLPRVATQADPARTFAPPRRLVRARAAVELCRVLPLMCGLALAEGVFLTEQDAFAQGGLGLAALVGAPLLLASGLVALLVTTLAKWLLVGRFTVSEHPLWSSFVWRNELYDTFVESLAVPSMAGAFTGTPVLNWWLRTLGAKIGRGVWLESYWLPETDLITVADGVSVNRGCVLQTHLFHDRIMRLDTVRLAEGSSLGPHGIVLPGTEVGARASIAPSSLVMRGESVPAHTRWAGNPIAGERPARPVPARAEGGAAA

Test system: Streptomyces albulus
Assay: minimum growth inhibitory concentration against the bacterium in a M9 minimum medium
Assay type: cell-based
Details: i.e. minimum concentration to inhibit aspartokinase

| Molecule | MIC |
| --- | --- |
| C[C@@H](O)[C@H](N)C(=O)O [L-Thr, L-threonine] | 16 mM (≈ 1910 µg/mL) |
| NCCSC[C@H](N)C(=O)O [S-(2-aminoethyl)-L-cysteine] | 8 mM (≈ 1310 µg/mL) |

Test system: ε-poly-L-lysine biosynthetic enzyme
Assay: adenylation activity of L-lysine and other amino acids by ATP-PPi exchange reaction
Assay type: biochemical, Streptomyces albulus strain IFO14147
Details: 1 mM amino acid; "None" = was not adenylated
Method: The adenylation activity of L-lysine and other amino acids was measured by ATP-PPi exchange reaction. A reaction solution (40 μl), which includes: 1 mM L-lysine or another amino acid; 5 mM MgCl2; 5 mM. ATP; 1 mM DTT; 20% (w/v) glycerol; 0.2% (w/v) NP-40; 0.2 mM sodium diphosphate; 51.8 kBq/ml [32P] sodium diphosphate; 100 mM TAPS-NaOH buffer solution (pH 8.5); and the enzyme, was incubated at 30° C. 1.0 ml of a solution containing 1.2% (w/v) active carbon, 0.1 M sodium diphosphate and 0.35 M perchloric acid was added thereto to terminate the reaction. After the active carbon was washed with pure water, the amount of radioactivity bound to the active carbon was measured using a liquid scintillation counter (Aloka).

| Molecule | Substrate specificity: adenylated by the enzyme or not |
| --- | --- |
| NCC(O)CCC(N)C(=O)O (racemic) [DL-5-hydroxylysine] | adenylated |
| NCCCC[C@@H](N)C(=O)O [D-lysine] | adenylated |
| NCC(=O)O [Gly] | None |
| C[C@H](N)C(=O)O [L-Ala] | None |
| N=C(N)NCCC[C@H](N)C(=O)O [L-Arg] | None |
| NC(=O)C[C@H](N)C(=O)O [L-Asn] | None |
| N[C@@H](CC(=O)O)C(=O)O [L-Asp] | None |
| N[C@@H](CS)C(=O)O [L-Cys] | None |
| NC(=O)CC[C@H](N)C(=O)O [L-Gln] | None |
| N[C@@H](CCC(=O)O)C(=O)O [L-Glu] | None |
| N[C@@H](Cc1c[nH]cn1)C(=O)O [L-His] | None |
| CC[C@H](C)[C@H](N)C(=O)O [L-Ile] | None |
| CC(C)C[C@H](N)C(=O)O [L-Leu] | None |
| CSCC[C@H](N)C(=O)O [L-Met] | None |
| N[C@@H](Cc1ccccc1)C(=O)O [L-Phe] | None |
| O=C(O)[C@@H]1CCCN1 [L-Pro] | None |
| N[C@@H](CO)C(=O)O [L-Ser] | None |
| C[C@@H](O)[C@H](N)C(=O)O [L-Thr, L-threonine] | None |
| N[C@@H](Cc1c[nH]c2ccccc12)C(=O)O [L-Trp] | None |
| N[C@@H](Cc1ccc(O)cc1)C(=O)O [L-Tyr] | None |
| CC(C)[C@H](N)C(=O)O [L-Val] | None |
| NCCOC[C@H](N)C(=O)O [O-(2-aminoethyl)-L-serine] | adenylated |
| NCCSC[C@H](N)C(=O)O [S-(2-aminoethyl)-L-cysteine] | adenylated |

Same assay, conditions: activity to L-lysine regarded as 100%; FIG. 8

| Molecule | Relative activity in amino acid activation (adenylation) reaction |
| --- | --- |
| NCCCC[C@H](N)C(=O)O [L-lysine] | 100% |

Test system: Streptomyces albulus
Assay: Microbial production of heteropolyamino acid by viable bacterium (LC-MS)
Assay type: cell-based
Details: 8 mM analog, 16 mM L-threonine, L-lysine; pH 4.2, 30° C., 48 hours; FIG. 10
Method: A bacterium of Streptomyces albulus, which was obtained by culturing in a M3G medium (Example 1) at 30° C. for 36 hours, was washed with 100 mM citrate buffer solution (pH 4.2) twice. The washed bacterium obtained from 100 ml of culture solution was suspended in a reaction solution for bacterium consisting of 50 ml of 5% glucose, 1% ammonium sulfate, 8 mM S-(2-aminoethyl)-L-cysteine, 16 mM L-threonine (the concentration of each of the amino acids corresponds to a minimum growth inhibitory concentration against the bacterium in a M9 minimum medium, i.e., a minimum concentration to inhibit aspartokinase which is the key enzyme for L-lysine biosynthesis), and 100 mM citrate buffer solution (pH 4.2) containing a given amount of L-lysine, and it was subjected to shaking culture at 30° C. for 48 hours. After the completion of culture, polyamino acid contained in the culture supernatant collected by centrifugation was subjected to LC-MS analysis using the method of Example 1 (paragraph [0091]).

| Molecule | Analog taken into the polylysine molecule by viable bacterium (heteropolyamino acid) |
| --- | --- |
| NCCSC[C@H](N)C(=O)O [S-(2-aminoethyl)-L-cysteine] | taken into the polylysine molecule |

Test system: ε-poly-L-lysine biosynthetic enzyme
Assay: adenylation activity of L-lysine and other amino acids by ATP-PPi exchange reaction
Assay type: biochemical, Streptomyces albulus strain IFO14147
Details: nucleotide in place of ATP

| Molecule | Nucleotide specificity: activation of substrate amino acids |
| --- | --- |
| Nc1ncnc2c1ncn2[C@@H]1O[C@H](COP(=O)(O)OP(=O)(O)OP(=O)(O)O)[C@@H](O)[C@H]1O [ATP] | ATP-specific |
| Nc1ccn([C@@H]2O[C@H](COP(=O)(O)OP(=O)(O)OP(=O)(O)O)[C@@H](O)[C@H]2O)c(=O)n1 [CTP] | not activated |
| Nc1nc2c(ncn2[C@@H]2O[C@H](COP(=O)(O)OP(=O)(O)OP(=O)(O)O)[C@@H](O)[C@H]2O)c(=O)[nH]1 [GTP] | not activated |
| O=c1ccn([C@@H]2O[C@H](COP(=O)(O)OP(=O)(O)OP(=O)(O)O)[C@@H](O)[C@H]2O)c(=O)[nH]1 [UTP] | not activated |

Test system: ε-poly-L-lysine biosynthetic enzyme
Assay: Enzymatic production of heteropolyamino acid from lysine analog and L-lysine (ESI-LC-MS)
Assay type: biochemical, Streptomyces albulus strain IFO14147
Details: 2 mM substrate, L-lysine and analog mixed; 25° C., 4 hours; FIG. 9
Method: A reaction solution (200 μl) containing 2 mM substrate amino acid (L-lysine and analog were mixed in a given ratio), 5 mM MgCl2, 5 mM ATP, 1 mM DTT, 20% glycerol, 0.2% (w/v) NP-40, 100 mM TAPS-NaOH buffer solution (pH 8.5) and about 10 μg of the purified enzyme preparation was put into a 1.5 ml microtube, and it was incubated at 25° C. 4 hours later, polyamino acid produced in a manner similar to that in Example 1 was subjected to ESI-LC-MS analysis.

| Molecule | Analog taken into the polylysine molecule by the enzyme (heteropolyamino acid) |
| --- | --- |
| NCC(O)CCC(N)C(=O)O (racemic) [DL-5-hydroxylysine] | taken into the polylysine molecule |
| NCCOC[C@H](N)C(=O)O [O-(2-aminoethyl)-L-serine] | taken into the polylysine molecule |
| NCCSC[C@H](N)C(=O)O [S-(2-aminoethyl)-L-cysteine] | taken into the polylysine molecule |

Test system: ε-poly-L-lysine biosynthetic enzyme
Assay: ε-poly-L-lysine biosynthesis activity (L-[U-14C]lysine taken into ε-poly-L-lysine)
Assay type: biochemical, Streptomyces albulus strain IFO14147
Details: 5 mM Mg^2+, 5 mM Mn^2+; no concentration given for Ca^2+
Method: The measurement of the ε-poly-L-lysine biosynthesis activity was performed according to the method of Kawai et al. (Biochem Biophys Res Commun. 2003 Nov. 21; 311 (3): 635-40) with some modification. A reaction solution (40 μl), which includes: 1 mM L-lysine containing 92.5 kBq/ml L-[U-14C]lysine (Amersham Biosciences); 5 mM MgCl2; 5 mM ATP; 1 mM DTT; 20% (w/v) glycerol; 0.2% (w/v) NP-40; 100 mM TAPS-NaOH buffer solution (pH 8.5); and the enzyme, was incubated at 30° C. 10 μl of the reaction solution was spotted on a glass fiber filter paper having the diameter of 2.1 cm (Whatman), and it was immediately immersed in an ice-cold sodium solution of 5% (w/v) trichloroacetic acid-0.25% (w/v) tungstic acid. It was allowed to stand for 20 minutes and thereafter mildly shaken for 5 minutes. After the filter was shaken again in the same solution for 5 minutes, it was rinsed with ethanol and then dried. The amount of radioactivity bound to the filter was measured using a liquid scintillation counter (Aloka). The amount of enzyme by which 1 pmol/second of L-lysine is taken into ε-poly-L-lysine under the above-described reaction conditions was defined as 1 unit. Specific activity of a protein is represented by unit per 1 mg of the protein. Quantitation of protein was performed using the Bradford method. A calibration curve was made using bovine serum albumin (Wako Pure Chemical Industries, Ltd.).

| Molecule | Metal ion requirement: enzyme activity on addition of divalent cation |
| --- | --- |
| [Ca+2] [Ca^2+] | activated slightly |
| [Mg+2] [Mg^2+] | maximal activity |
| [Mn+2] [Mn^2+] | maximal activity |

Same assay, conditions: purified enzyme preparation

| Molecule | Optimum pH of synthesis reaction |
| --- | --- |
| B1 | 8.5 |
